Assay results from ChEMBL document CHEMBL1121647, “Synthesis and antiviral properties of (Z)-5-(2-bromovinyl)-2'-deoxyuridine” (1981).
Values after ≈ are worked out from the molar mass of the structure shown.

Key:
Type in all cases: functional
Human alphaherpesvirus 1 [1] = assay: Minimum inhibitory concentration required to reduce HSV-1 (F) strain-induced cytopathogenicity in primary rabbit kidney cell cultures
Human alphaherpesvirus 1 [2] = assay: Minimum inhibitory concentration required to reduce HSV-1 (KOS) strain-induced cytopathogenicity in primary rabbit kidney cell cultures
Human alphaherpesvirus 1 [3] = assay: Minimum inhibitory concentration required to reduce HSV-1 (McIntyre) strain-induced cytopathogenicity in primary rabbit kidney cell cultures
Human alphaherpesvirus 2 [4] = assay: Antiviral activity expressed as minimum HSV-2 (Lyons) strain-induced cytopathogenicity in primary rabbit kidney cell cultures
Human alphaherpesvirus 2 [5] = assay: Minimum inhibitory concentration required to reduce HSV-2 (196) strain-induced cytopathogenicity in primary rabbit kidney cell cultures
Human alphaherpesvirus 2 [6] = assay: Minimum inhibitory concentration required to reduce HSV-2 (G) strain-induced cytopathogenicity in primary rabbit kidney cell cultures
[7] = test system: Vesicular stomatitis virus; assay: Minimum inhibitory concentration required to reduce vesicular stomatis virus-induced cytopathogenicity in primary rabbit kidney cell cultures
Human alphaherpesvirus 2 [8] = assay: Minimum inhibitory concentration required to reduce HSV-2 (Lyons) strain-induced cytopathogenicity in primary rabbit kidney cell cultures

Structure (SMILES)	MIC (Human alphaherpesvirus 1 [1])	MIC (Human alphaherpesvirus 1 [2])	MIC (Human alphaherpesvirus 1 [3])	MIC (Human alphaherpesvirus 2 [4])	MIC (Human alphaherpesvirus 2 [5])	MIC (Human alphaherpesvirus 2 [6])	MIC [7]	MIC (Human alphaherpesvirus 2 [8])
O=c1[nH]c(=O)n([C@H]2C[C@H](O)[C@@H](CO)O2)cc1I [IDOXURIDINE]	0.2 µg/mL (≈ 0.565 µM)	0.2 µg/mL (≈ 0.565 µM)	0.2 µg/mL (≈ 0.565 µM)	0.2 µg/mL (≈ 0.565 µM)	0.4 µg/mL (≈ 1.13 µM)	0.4 µg/mL (≈ 1.13 µM)	> 200 µg/mL	
O=c1[nH]c(=O)n([C@H]2C[C@H](O)[C@@H](CO)O2)cc1/C=C\Br	2 µg/mL (≈ 6 µM)	4 µg/mL (≈ 12 µM)	1 µg/mL (≈ 3 µM)		4 µg/mL (≈ 12 µM)	2 µg/mL (≈ 6 µM)	> 200 µg/mL	4 µg/mL (≈ 12 µM)
O=c1[nH]c(=O)n([C@H]2C[C@H](O)[C@@H](CO)O2)cc1/C=C/Br [BRIVUDINE]	0.02 µg/mL (≈ 0.06 µM)	0.02 µg/mL (≈ 0.06 µM)	0.01 µg/mL (≈ 0.03 µM)	0.4 µg/mL (≈ 1.2 µM)	0.4 µg/mL (≈ 1.2 µM)	0.7 µg/mL (≈ 2.1 µM)	> 200 µg/mL	
